From PubChem BioAssay (NCI)
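All cell lines were grown in 96-well plates and treated with compound for 48 hours. At the TGI there is no net growth.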

Legend:
Experiment in all cases: NCI tumour cell line growth inhibition, 48 h
HT29 colon = tested on: HT29 colon
OVCAR-5 ovarian = tested on: OVCAR-5 ovarian
SNB-78 CNS = tested on: SNB-78 CNS
KM20L2 colon = tested on: KM20L2 colon
MOLT-4 leukemia = tested on: MOLT-4 leukemia
UACC-257 melanoma = tested on: UACC-257 melanoma
SN12C renal = tested on: SN12C renal
RXF 393 renal = tested on: RXF 393 renal
CCRF-CEM leukemia = tested on: CCRF-CEM leukemia
HCC-2998 colon = tested on: HCC-2998 colon
NCI-H226 lung = tested on: NCI-H226 lung
786-0 renal = tested on: 786-0 renal
UACC-62 melanoma = tested on: UACC-62 melanoma
RXF-631 renal = tested on: RXF-631 renal
HCT-15 colon = tested on: HCT-15 colon
SNB-75 CNS = tested on: SNB-75 CNS
HCT-116 colon = tested on: HCT-116 colon
OVCAR-4 ovarian = tested on: OVCAR-4 ovarian
A549 NSCLC = tested on: A549 NSCLC
A498 renal = tested on: A498 renal
SR leukemia = tested on: SR leukemia
LXFL 529 NSCLC = tested on: LXFL 529 NSCLC
OVCAR-8 ovarian = tested on: OVCAR-8 ovarian
DMS 273 small cell lung = tested on: DMS 273 small cell lung
K-562 leukemia = tested on: K-562 leukemia
HL-60(TB) leukemia = tested on: HL-60(TB) leukemia
LOX IMVI melanoma = tested on: LOX IMVI melanoma
TK-10 renal = tested on: TK-10 renal
SF-268 CNS = tested on: SF-268 CNS
NCI-H460 lung = tested on: NCI-H460 lung
HOP-18 NSCLC = tested on: HOP-18 NSCLC
ACHN renal = tested on: ACHN renal
DMS 114 small cell lung = tested on: DMS 114 small cell lung
U251 CNS = tested on: U251 CNS
IGROV1 ovarian = tested on: IGROV1 ovarian
SK-MEL-28 melanoma = tested on: SK-MEL-28 melanoma
HOP-92 NSCLC = tested on: HOP-92 NSCLC
CAKI-1 renal = tested on: CAKI-1 renal
UO-31 renal = tested on: UO-31 renal
NCI-H23 lung = tested on: NCI-H23 lung
KM12 colon = tested on: KM12 colon
M19-MEL melanoma = tested on: M19-MEL melanoma
EKVX NSCLC = tested on: EKVX NSCLC
NCI-H522 lung = tested on: NCI-H522 lung
SF-539 CNS = tested on: SF-539 CNS
MALME-3M melanoma = tested on: MALME-3M melanoma
SNB-19 CNS = tested on: SNB-19 CNS
M14 melanoma = tested on: M14 melanoma
SW-620 colon = tested on: SW-620 colon
SK-MEL-5 melanoma = tested on: SK-MEL-5 melanoma
COLO 205 colon = tested on: COLO 205 colon
OVCAR-3 ovarian = tested on: OVCAR-3 ovarian
SF-295 CNS = tested on: SF-295 CNS
HOP-62 NSCLC = tested on: HOP-62 NSCLC
DLD-1 colon = tested on: DLD-1 colon
SK-OV-3 ovarian = tested on: SK-OV-3 ovarian
SK-MEL-2 melanoma = tested on: SK-MEL-2 melanoma
RPMI-8226 leukemia = tested on: RPMI-8226 leukemia
XF 498 CNS = tested on: XF 498 CNS

COc1ccc(N=Nc2c(-c3ccccc3)nn(C(=O)CC(=O)Nc3ccccc3Cl)c2-c2ccccc2)cc1
TGI (HT29 colon): > 100 µM
TGI (OVCAR-5 ovarian): > 100 µM
TGI (SNB-78 CNS): > 100 µM
TGI (KM20L2 colon): > 100 µM
TGI (MOLT-4 leukemia): 8.85 µM
TGI (UACC-257 melanoma): > 100 µM
TGI (SN12C renal): > 100 µM
TGI (RXF 393 renal): > 100 µM
TGI (CCRF-CEM leukemia): > 100 µM
TGI (HCC-2998 colon): > 100 µM
TGI (NCI-H226 lung): > 100 µM
TGI (786-0 renal): > 100 µM
TGI (UACC-62 melanoma): > 100 µM
TGI (RXF-631 renal): > 100 µM
TGI (HCT-15 colon): > 100 µM
TGI (SNB-75 CNS): > 100 µM
TGI (HCT-116 colon): > 100 µM
TGI (OVCAR-4 ovarian): > 100 µM
TGI (A549 NSCLC): > 100 µM
TGI (A498 renal): > 100 µM
TGI (SR leukemia): 11.3 µM
TGI (LXFL 529 NSCLC): > 100 µM
TGI (OVCAR-8 ovarian): > 100 µM
TGI (DMS 273 small cell lung): > 100 µM
TGI (K-562 leukemia): > 100 µM
TGI (HL-60(TB) leukemia): > 100 µM
TGI (LOX IMVI melanoma): > 100 µM
TGI (TK-10 renal): > 100 µM
TGI (SF-268 CNS): > 100 µM
TGI (NCI-H460 lung): > 100 µM
TGI (HOP-18 NSCLC): > 100 µM
TGI (ACHN renal): > 100 µM
TGI (DMS 114 small cell lung): > 100 µM
TGI (U251 CNS): > 100 µM
TGI (IGROV1 ovarian): > 100 µM
TGI (SK-MEL-28 melanoma): > 100 µM
TGI (HOP-92 NSCLC): > 100 µM
TGI (CAKI-1 renal): > 100 µM
TGI (UO-31 renal): > 100 µM
TGI (NCI-H23 lung): > 100 µM
TGI (KM12 colon): > 100 µM
TGI (M19-MEL melanoma): > 100 µM
TGI (EKVX NSCLC): > 100 µM
TGI (NCI-H522 lung): > 100 µM
TGI (SF-539 CNS): > 100 µM
TGI (MALME-3M melanoma): > 100 µM
TGI (SNB-19 CNS): > 100 µM
TGI (M14 melanoma): > 100 µM
TGI (SW-620 colon): > 100 µM
TGI (SK-MEL-5 melanoma): > 100 µM
TGI (COLO 205 colon): > 100 µM
TGI (OVCAR-3 ovarian): > 100 µM
TGI (SF-295 CNS): > 100 µM
TGI (HOP-62 NSCLC): > 100 µM
TGI (DLD-1 colon): > 100 µM

O=C(/C=C/c1ccccc1O)c1cccc2ccccc12
TGI (HT29 colon): > 100 µM
TGI (OVCAR-5 ovarian): > 100 µM
TGI (SNB-78 CNS): > 100 µM
TGI (KM20L2 colon): > 100 µM
TGI (MOLT-4 leukemia): > 83.7 µM
TGI (UACC-257 melanoma): > 100 µM
TGI (SK-OV-3 ovarian): > 100 µM
TGI (SN12C renal): > 100 µM
TGI (RXF 393 renal): > 88.9 µM
TGI (CCRF-CEM leukemia): 54 µM
TGI (HCC-2998 colon): > 100 µM
TGI (NCI-H226 lung): > 100 µM
TGI (SK-MEL-2 melanoma): > 100 µM
TGI (786-0 renal): > 100 µM
TGI (UACC-62 melanoma): > 100 µM
TGI (RXF-631 renal): > 100 µM
TGI (HCT-15 colon): > 58.4 µM
TGI (SNB-75 CNS): > 100 µM
TGI (HCT-116 colon): > 69.7 µM
TGI (OVCAR-4 ovarian): > 100 µM
TGI (A549 NSCLC): > 100 µM
TGI (A498 renal): > 100 µM
TGI (SR leukemia): > 100 µM
TGI (LXFL 529 NSCLC): > 100 µM
TGI (OVCAR-8 ovarian): > 100 µM
TGI (DMS 273 small cell lung): > 100 µM
TGI (K-562 leukemia): > 100 µM
TGI (HL-60(TB) leukemia): > 80.8 µM
TGI (LOX IMVI melanoma): 98.6 µM
TGI (TK-10 renal): > 100 µM
TGI (SF-268 CNS): > 100 µM
TGI (NCI-H460 lung): > 100 µM
TGI (HOP-18 NSCLC): > 100 µM
TGI (ACHN renal): > 100 µM
TGI (DMS 114 small cell lung): > 92.2 µM
TGI (U251 CNS): > 66.4 µM
TGI (IGROV1 ovarian): > 100 µM
TGI (SK-MEL-28 melanoma): > 100 µM
TGI (HOP-92 NSCLC): > 100 µM
TGI (CAKI-1 renal): > 100 µM
TGI (UO-31 renal): > 100 µM
TGI (NCI-H23 lung): > 100 µM
TGI (KM12 colon): > 100 µM
TGI (M19-MEL melanoma): > 100 µM
TGI (EKVX NSCLC): > 100 µM
TGI (NCI-H522 lung): > 100 µM
TGI (SF-539 CNS): > 100 µM
TGI (MALME-3M melanoma): > 100 µM
TGI (SNB-19 CNS): > 100 µM
TGI (M14 melanoma): > 100 µM
TGI (SW-620 colon): > 46.9 µM
TGI (SK-MEL-5 melanoma): > 100 µM
TGI (RPMI-8226 leukemia): 76.6 µM
TGI (COLO 205 colon): > 68.6 µM
TGI (XF 498 CNS): > 100 µM
TGI (OVCAR-3 ovarian): > 100 µM
TGI (SF-295 CNS): > 100 µM
TGI (HOP-62 NSCLC): > 100 µM
TGI (DLD-1 colon): > 100 µM

Cc1ccc(/C=C/C(=O)c2ccc([N+](=O)[O-])cc2)cc1
TGI (HT29 colon): > 100 µM
TGI (OVCAR-5 ovarian): > 100 µM
TGI (SNB-78 CNS): > 100 µM
TGI (KM20L2 colon): > 100 µM
TGI (MOLT-4 leukemia): > 100 µM
TGI (UACC-257 melanoma): > 100 µM
TGI (SK-OV-3 ovarian): > 100 µM
TGI (SN12C renal): > 100 µM
TGI (RXF 393 renal): > 100 µM
TGI (CCRF-CEM leukemia): > 100 µM
TGI (HCC-2998 colon): > 100 µM
TGI (NCI-H226 lung): > 100 µM
TGI (SK-MEL-2 melanoma): > 100 µM
TGI (786-0 renal): > 100 µM
TGI (UACC-62 melanoma): > 100 µM
TGI (RXF-631 renal): > 100 µM
TGI (HCT-15 colon): > 100 µM
TGI (SNB-75 CNS): > 100 µM
TGI (HCT-116 colon): > 100 µM
TGI (OVCAR-4 ovarian): > 100 µM
TGI (A549 NSCLC): > 100 µM
TGI (A498 renal): 19.1 µM
TGI (SR leukemia): > 100 µM
TGI (LXFL 529 NSCLC): > 100 µM
TGI (OVCAR-8 ovarian): > 100 µM
TGI (DMS 273 small cell lung): > 100 µM
TGI (K-562 leukemia): > 100 µM
TGI (HL-60(TB) leukemia): > 100 µM
TGI (LOX IMVI melanoma): > 100 µM
TGI (TK-10 renal): > 100 µM
TGI (SF-268 CNS): > 100 µM
TGI (NCI-H460 lung): > 100 µM
TGI (HOP-18 NSCLC): > 100 µM
TGI (ACHN renal): > 100 µM
TGI (U251 CNS): > 100 µM
TGI (IGROV1 ovarian): > 100 µM
TGI (SK-MEL-28 melanoma): > 100 µM
TGI (CAKI-1 renal): > 100 µM
TGI (UO-31 renal): > 100 µM
TGI (NCI-H23 lung): 99.8 µM
TGI (KM12 colon): > 100 µM
TGI (M19-MEL melanoma): > 100 µM
TGI (EKVX NSCLC): > 100 µM
TGI (NCI-H522 lung): > 100 µM
TGI (SF-539 CNS): > 100 µM
TGI (MALME-3M melanoma): > 100 µM
TGI (SNB-19 CNS): > 100 µM
TGI (M14 melanoma): > 100 µM
TGI (SW-620 colon): > 100 µM
TGI (SK-MEL-5 melanoma): > 100 µM
TGI (COLO 205 colon): > 100 µM
TGI (XF 498 CNS): > 100 µM
TGI (OVCAR-3 ovarian): > 100 µM
TGI (SF-295 CNS): > 100 µM
TGI (HOP-62 NSCLC): > 100 µM
TGI (DLD-1 colon): > 100 µM
